Source: patent US11059833B2, “BCKDK inhibitors” (Pfizer Inc., priority 2019, dated 2021)
pIC50: −log10 of the molar value. Where two headings read alike, the source gives them in different places.

Legend:
[1] = test system: phosphorylation of S293 BCKDH; assay: Phospho BCKDHA AlphaLISA in human skeletal myocytes; assay type: cell-based; conditions: 1 h, 60 minutes, geometric mean
Experimental: Prior to conducting the assay, BCKDH antibodies (Bethyl A303-790A) were biotinylated using the ChromaLink™ One-Shot Antibody Biotinylation Kit B-9007-009K and phospho Ser293 BCKDHA antibodies (Bethyl A304-672A) were directly conjugated to AlphaLISA Acceptor Beads (custom conjugation performed by Perkin Elmer's Lance/Delfia Custom Services, Boston Mass.). Human skeletal myocytes (Gibco A11440) were plated in a 384 well plate at a density of 7500 live cells/well and grown in skeletal muscle growth media containing the media supplement and chick embryo extract (Promocell C-23060 and C-23160, MP92850145). After overnight incubation, media was removed, and BCKDK inhibitors were added in assay media (growth media diluted 10-fold in PBS). After 60 minutes, the media was removed, the cells were washed with PBS and lysed in 10 μL of buffer (Cell Signaling #9803) containing 2 nM biotinylated total BCKDH antibodies. Samples were incubated for 60 minutes, and 5 μL of AlphaLISA acceptor beads conjugated with phospho-S293 BCKDH antibodies were added 1× Alpha buffer. After a 60 minute incubation, 5 μL streptavidin donor beads (40 μg/μL) beads were added in 1× Alpha buffer while protecting from light. Fluorescence was emitted when the phospho and total BCKDH antibodies were within proximity, signifying phosphorylation of S293 BCKDH. Fluorescence was monitored on the Envision plate reader. The zero percent effect was determined from DMSO treatment and the maximal effect was assessed relative to the BCKDK inhibitor BT2. IC50 curves were generated using ActivityBase software (IDBS, Boston Mass.).

human BCKDK = molecular target: T1, human BCKDK (Homo sapiens, UniProt O14874); assay: In Vitro FRET (TR-FRET) BCKDK activity assay, phosphorylation of BCKDHE1α-E2 fusion substrate; assay type: biochemical
T1 construct: human BCKDK (residues 31-412 of the protein pre-processing); 6xHis (N, cleaved yes); MBP (N, cleaved yes); TEV protease site (ENLYFQG) (N, cleaved yes); made in house; host or cells: BL21(DE3) E. coli, co-expressed with GroEL-GroES
Experimental: For lipoylation, fusion substrate was incubated with LpIA at a 10:1 (substrate:LplA) ratio in 20 mM sodium phosphate pH 7.4, 6 mM MgCl2, 4 mM ATP, 2 mM DTT, 3 mM DL-6,8-thioctic acid at 37° C.
BCKDK activity was monitored by phosphorylation of a HIS-tagged fusion BCKDHE1α-E2 substrate protein as described above and was detected using a time resolved-fluorescence resonance energy transfer (TR-FRET) assay system. Compounds were spotted into a 384 well plate, and purified human BCKDK protein was added to the plated compound. […] The reaction was terminated with EDTA. […] Signal intensity was proportional to the level of BCKDK-mediated substrate phosphorylation. Reactions were normalized to zero percent effect with DMSO and one hundred percent effect with 600 μM Radicicol, a known BCKDK inhibitor. IC50 curves were generated using ABASE software (IDBS, Boston Mass.).

[2] = test system: Mice fed 60% high fat diet; assay: Diabetic animal model: fasting glucose and oral glucose tolerance test; assay type: in vivo; conditions: for Area under the curve for the glucose tolerance test as percent of vehicle treated group: 1 g/kg dextrose; for fasting plasma glucose levels: high fat diet mice, mean±SEM
Experimental: Blood glucose was measured 15, 30, 60, and 120 minutes after the gavage, and the data were plotted and analyzed as area under the curve using GraphPad Prism 8.0 (GraphPad Software, La Jolla, Calif.). Blood was concomitantly collected in EDTA tubes at the 0, 15 and 30 minute time points, spun down at 10K RPM for 10 minutes. […] Area under the curve for the glucose tolerance test as percent of vehicle treated group was 100.0±3 (vehicle, n=29), 100±4 (20 mg/kg, n=18), 87±2 (60 mg/kg, n=30), 78±2 (180 mg/kg, n=16).

[3] = test system: Dahl salt sensitive male rats; assay: Heart failure rat model (high salt diet); assay type: in vivo; conditions: 100 mg/kg PO once daily
Experimental: Dahl salt sensitive male rats (Charles River strain SS/JrHsdMcwiCrl) were fed control diet or 6% high salt diet (iD03121701-AIN-76a rodent diet with added 6% NaCl) for 21 weeks in total. At week 5, the high salt diet-fed rats were dosed PO with 100 mg/kg BT2 or vehicle once daily for the last 16 weeks of study. Echocardiography was performed at week 18 (myocardial performance index (MPI): control diet 0.567±0.034, high salt+vehicle 0.810±0.039, high salt+BT2 0.660±0.030; Isovolumic relaxation time (IVRT): control diet 23.154±0.60 ms, high salt+vehicle 36.507±2.20 ms, high salt+BT2 31.605±1.78 ms; Intraventricular septal thickness at diastole (IVDd): control 2.03±0.088 mm, high salt+vehicle 2.877±0.110 mm, high salt+BT2 2.489±0.089 mm). NT-pro-BNP (MSD K153JKD; control […], high salt+vehicle 1003.0±200.8 μg/mL, high salt+BT2 503.4±84.96 μg/mL), and proANP (MSD K153MBD; control 33.50±5.4 ng/mL, high salt 65.19±8.3 ng/mL, high salt+BT2 38.81±7.0 ng/mL) levels were measured in plasma using MSD assays at the terminal time point. Heart weights were measured at euthanasia and normalized to tibia length (heart/tibia control 0.033±0.001 g/mm; high salt+vehicle 0.042±0.001 g/mm, high salt+BT2 0.038±0.001 g/mm).

[4] = purified human BCKDK, 15 μM ATP, geometric mean, read-out: In Vitro FRET IC50

pIC50 [1] | pIC50 (human BCKDK; [4]) | SMILES | also measured
5.38 | 6.64 | Cc1c(F)sc2cc(C(=O)O)sc12 [Example 6, 5-fluoro-6-methylthieno[3,2-b]thiophene-2-carboxylic acid] | 
 | 6.10 | Cc1c(C(=O)O)sc2cc(Cl)sc12 [Example 14, 5-chloro-3-methylthieno[3,2-b]thiophene-2-carboxylic acid] | 
5.92 | 6.40 | O=C(O)c1cc2sc(Cl)c(F)c2s1 [Example 12, 5-chloro-6-fluorothieno[3,2-b]thiophene-2-carboxylic acid] | 
5.74 | 7.19 | O=C(O)c1sc2cc(F)sc2c1C(F)F [Example 3, 3-(Difluoromethyl)-5-fluorothieno[3,2-b]thiophene-2-carboxylic acid] | 
5.66 | 6.43 | O=C(O)c1sc2cc(Cl)sc2c1C(F)F [Example 11, 5-chloro-3-(difluoromethyl)thieno[3,2-b]thiophene-2-carboxylic acid] | 
5.82 | 6.92 | O=C(O)c1sc2cc(F)sc2c1Br [Example 2, 3-Bromo-5-fluorothieno[3,2-b]thiophene-2-carboxylic acid] | 
6.14 |  | O=C(O)c1sc2cc(F)sc2c1Cl [Example 1, 3-Chloro-5-fluorothieno[3,2-b]thiophene-2-carboxylic acid] | Area under the curve for the glucose tolerance test as percent of vehicle treated group ([2]; 20 mg/kg PO, n=18 (vehicle 100.0±3)): 100±4% of vehicle treated group; fasting plasma glucose levels ([2]; 20 mg/kg PO, n=18 (vehicle 237±5)): 230 ± 8 mg/dL; Area under the curve for the glucose tolerance test as percent of vehicle treated group ([2]; 60 mg/kg PO, n=30 (vehicle 100.0±3)): 87±2% of vehicle treated group; fasting plasma glucose levels ([2]; 60 mg/kg PO, n=40 (vehicle 237±5)): 221 ± 4 mg/dL; Area under the curve for the glucose tolerance test as percent of vehicle treated group ([2]; 180 mg/kg PO, n=16 (vehicle 100.0±3)): 78±2% of vehicle treated group; fasting plasma glucose levels ([2]; 180 mg/kg PO, n=19 (vehicle 237±5)): 206 ± 5 mg/dL
 | 6.09 | O=C(O)c1sc2cc(F)ccc2c1Cl [BT2F, 3-chloro-6-fluoro-1-benzothiophene-2-carboxylic acid, reference compound] | 
5.47 | 6.48 | O=C(O)c1cc2sc(F)c(Cl)c2s1 [Example 10, 6-chloro-5-fluorothieno[3,2-b]thiophene-2-carboxylic acid] | 
6.41 | 7.24 | O=C(O)c1cc2sc(F)c(F)c2s1 [Example 4, 5,6-Difluorothieno[3,2-b]thiophene-2-carboxylic acid] | 
6.39 | 6.85 | O=C(O)c1sc2cc(F)sc2c1F [Example 5, 3,5-Difluorothieno[3,2-b]thiophene-2-carboxylic acid] | 
5.72 | 6.33 | O=C(O)c1sc2c(F)c(Cl)sc2c1F [Example 13, 5-chloro-3,6-difluorothieno[3,2-b]thiophene-2-carboxylic acid] | 
5.55 | 6.08 | O=C(O)c1sc2cc(Cl)sc2c1Br [Example 15, ammonium 3-bromo-5-chlorothieno[3,2-b]thiophene-2-carboxylate] | 
5.80 | 6.55 | Cc1c(C(=O)O)sc2cc(F)sc12 [Example 9, 5-fluoro-3-methylthieno[3,2-b]thiophene-2-carboxylic acid] | 
5.44 | 6.06 | CCc1c(C(=O)O)sc2cc(Cl)sc12 [Example 16, 5-chloro-3-ethylthieno[3,2-b]thiophene-2-carboxylic acid] | 
5.74 | 6.59 | O=C(O)c1sc2c(F)c(F)sc2c1Cl [Example 8, 3-chloro-5,6-difluorothieno[3,2-b]thiophene-2-carboxylic acid] | 
5.96 | 6.59 | O=C(O)c1sc2cc(Cl)sc2c1F [Example 7, 5-chloro-3-fluorothieno[3,2-b]thiophene-2-carboxylic acid] | 

SMILES | pIC50 [1] | pIC50 (human BCKDK; [4]) | also measured
O=C(O)c1sc2cc(Cl)ccc2c1Cl [BT2, 3,6-dichloro-1-benzothiophene-2-carboxylic acid] | 5.35 |  | heart weight normalized to tibia length (heart/tibia) ([3]; at euthanasia (high salt+vehicle 0.042±0.001, control 0.033±0.001)): 0.038±0.001 g/mm; myocardial performance index (MPI) ([3]; echocardiography at week 18 (high salt+vehicle 0.810±0.039, control diet 0.567±0.034)): 0.660±0.030; Intraventricular septal thickness at diastole (IVDd) ([3]; echocardiography at week 18 (high salt+vehicle 2.877±0.110, control 2.03±0.088)): 2.489±0.089 mm; Isovolumic relaxation time (IVRT) ([3]; echocardiography at week 18 (high salt+vehicle 36.507±2.20, control diet 23.154±0.60)): 31.605 ± 1.78 ms; proANP level in plasma ([3]; terminal time point (high salt 65.19±8.3, control 33.50±5.4)): 38.81 ± 7.0 ng/mL; NT-pro-BNP level in plasma ([3]; terminal time point (high salt+vehicle 1003.0±200.8, control 294.9±26.04)): 503.4 ± 84.96 µg/mL; pIC50 (human BCKDK): 5.89
